In patent US9084420B2, “Amide derivative, pest control agent containing the amide derivative, and pest controlling method” (Mitsui Chemicals Agro, Inc., priority 2008, dated 2015):

Columns and labels:
Format in all cases: in vivo
[1] = test system: Musca domestica; experiment: Pesticidal test against Musca domestica (petri dish residue); details: 24 h, acetone solution dried in petri dish, female adults, 25° C., after 1 day, read-out: pesticidal rate
Procedure: Pesticidal Test Against Musca domestica
1 ml of an acetone solution in which a test compound had been diluted at a predetermined concentration was added dropwise to a petri dish having a diameter of 9 cm, and air-dried, and then the female adults of Musca domestica were released and the petri dish was capped. They were left to stand in a thermostatic chamber at 25° C., and the numbers of the living pests and the dead pests were examined after 1 day. The test was carried out with […] in two replicates.

[2] = test system: Plutella xylostella; experiment: Pesticidal test against Plutella xylostella (cabbage leaf immersion); details: 144 h, 3-stage larvae on treated cabbage leaf, 25° C., after 6 days, read-out: pesticidal rate
Procedure: (§1) Pesticidal Test Against Plutella xylostella A piece of a cabbage leaf was immersed for 30 seconds in a chemical solution in which a test compound had been diluted at a predetermined concentration, and air-dried, and then put into a 7 cm polyethylene cup having a filter paper laid on the bottom thereof, and 3-stage larvae of Plutella xylostella were released. They were left to stand in a thermostatic chamber at 25° C., and the numbers of the living pests and the dead pests were examined after 6 days. The test was carried out with five larvae per group in two replicates.

[3] = test system: Spodoptera litura; experiment: Pesticidal test of penetration migration against Spodoptera litura (radish seedling root immersion); details: 72 h, radish seedling root immersed 2 days, leaf fed to 2-stage larvae, 25° C., after 3 days, read-out: pesticidal rate
Procedure: Pesticidal Test of Penetration Migration against Spodoptera litura A root portion of a radish seedling was immersed for 2 days in a chemical solution in which a test compound had been diluted at a predetermined concentration, then the leaf was cut and put into a 7 cm polyethylene cup having a filter paper laid on the bottom thereof, and 2-stage larvae of Spodoptera litura were released. They were left to stand in a thermostatic chamber at 25° C., and the numbers of the living pests and the dead pests were examined after 3 days. The test was carried out with five larvae per group in two replicates.

[4] = test system: Spodoptera litura; experiment: Pesticidal test against Spodoptera litura (cabbage leaf immersion); details: 144 h, 2-stage larvae on treated cabbage leaf, 25° C., after 6 days, read-out: pesticidal rate
Procedure: as §1, with “Spodoptera litura” for “Plutella xylostella”, “2-stage” for “3-stage”

N#Cc1ccc(C(=O)N(CCC(N)=O)c2cccc(C(=O)Nc3c(Br)cc(C(F)(C(F)(F)F)C(F)(F)F)cc3C(F)(F)F)c2F)cc1 [1-136, 3-(N-(3-amino-3-oxopropyl)-4-cyanobenzamide)-N-(2-bromo-4-(perfluoropropan-2-yl)-6-(trifluoromethyl)phenyl)-2-fluorobenzamide]
≥ 70%: pest or weed control at 1000 ppm [1] | pest or weed control at 100 ppm [2] | pest or weed control at 1 ppm [3] | pest or weed control at 100 ppm [4]

NC(=O)CCN(C(=O)c1ccccc1)c1cccc(C(=O)Nc2c(Br)cc(C(F)(C(F)(F)F)C(F)(F)F)cc2C(F)(F)F)c1F [1-171, 3-(N-(3-amino-3-oxopropyl)benzamide)-N-(2-bromo-4-(perfluoropropan-2-yl)-6-(trifluoromethyl)phenyl)-2-fluorobenzamide]
≥ 70%: pest or weed control at 100 ppm [2] | pest or weed control at 1 ppm [3] | pest or weed control at 100 ppm [4]

N#Cc1ccc(C(=O)N(CCS(N)(=O)=O)c2cccc(C(=O)Nc3c(Br)cc(C(F)(C(F)(F)F)C(F)(F)F)cc3Br)c2F)cc1 [2-133, 3-(4-cyano-N-(2-sulfamoylethyl)benzamide)-N-(2,6-dibromo-4-(perfluoropropan-2-yl)phenyl)-2-fluorobenzamide]
≥ 70%: pest or weed control at 100 ppm [2] | pest or weed control at 1 ppm [3] | pest or weed control at 100 ppm [4]

N#Cc1cccc(C(=O)N(CCC(=O)NO)c2cccc(C(=O)Nc3c(Br)cc(C(F)(C(F)(F)F)C(F)(F)F)cc3Br)c2F)c1 [5-33, 3-(3-cyano-N-(3-(hydroxyamino)-3-oxopropyl)benzamide)-N-(2,6-dibromo-4-(perfluoropropan-2-yl)phenyl)-2-fluorobenzamide]
≥ 70%: pest or weed control at 100 ppm [2] | pest or weed control at 1 ppm [3] | pest or weed control at 100 ppm [4]

CCOC(=O)NC(=O)CCN(C(=O)c1ccc(C#N)cc1)c1cccc(C(=O)Nc2c(Br)cc(C(F)(C(F)(F)F)C(F)(F)F)cc2C(F)(F)F)c1F [5-76, ethyl 3-(N-(3-(2-bromo-4-(perfluorophan-2-yl)-6-(trifluoromethyl)phenylcarbamoyl)-2-fluorophenyl)-4-cyanobenzamide)propanoylcarbamate]
≥ 70%: pest or weed control at 1000 ppm [1] | pest or weed control at 100 ppm [2] | pest or weed control at 1 ppm [3] | pest or weed control at 100 ppm [4]

CNC(=O)CCN(C(=O)c1ccccc1)c1cccc(C(=O)Nc2c(I)cc(C(F)(C(F)(F)F)C(F)(F)F)cc2C(F)(F)F)c1 [5-86, N-(3-(2-iodo-4-(perfluoropropan-2-yl)-6-(trifluoromethyl)phenylcarbamoyl)phenyl)-N-(3-(methylamino)-3-oxopropyl)benzamide]
≥ 70%: pest or weed control at 1000 ppm [1] | pest or weed control at 100 ppm [2] | pest or weed control at 1 ppm [3] | pest or weed control at 100 ppm [4]
